For orientation: IC50 means the concentration at which inhibition is half-maximal.

Each structure is given as a SMILES string. Read-outs that look alike come from different tables or passages of the source. A value given as a limit tells only on which side of the number the result lay.

Common to all, as to type: biochemical
One assay concerns the target PI3K-beta (Homo sapiens, UniProt P42338). Briefly: PI3K-beta fluorescence polarization assay. To be noted: read-out: PI3Kβ Avg. IC50. The procedure: PI3K-Alpha, PI3K-Beta, PI3K-Gamma, and PI3K-delta Fluorescence Polarization Assay Protocols
PI3-Kinase reactions were performed in 5 mM HEPES, pH 7, 2.5 mM MgCl2, and 25 μM ATP, with diC8-PI(4,5)P2 (Echelon, Salt Lake City Utah) as substrate. Nunc 384-well black polypropylene fluorescent plates were used for PI3K assays. Reactions were quenched by the addition of EDTA to a final concentration of 10 mM. Final reaction volumes were 10 μl. For evaluation of PI3K inhibitors, 5 ng of enzyme (PI3K-alpha, beta, gamma, or delta) and 2.5 μM of substrate was used per […] reaction volume, and inhibitor concentrations ranged from 100 μM to 20 μM; the final level of DMSO in reactions never exceeded 2%. Reactions were allowed to proceed for one hour at 25° C. After 1 hour, GST-tagged GRP1 (general receptor for phosphoinositides) PH domain fusion protein was added to a final concentration of 100 nM, and BODIPY-TMRI(1,3,4,5)P4 (Echelon) was also added to a final concentration of 5 nM. Final sample volumes were 25 μl with a final DMSO concentration of 0.8%. Assay Plates were read on Perkin-Elmer Envision plate readers with appropriate filters for Tamra [BODIPY-TMRI(1,3,4,5)P4]. Data obtained were used to calculate enzymatic activity and enzyme inhibition by inhibitor compounds.
In general terms: Polarisation of emitted light reports the rotation of a fluorescent probe.

For another assay, the target named is PI3K-delta (Homo sapiens, UniProt O00329). In words: PI3K-delta fluorescence polarization assay.
A further assay has as its target PI3K-gamma (Homo sapiens, UniProt P48736). Briefly: PI3K-gamma fluorescence polarization assay. To be noted: PI3Kγ Avg. IC50. The method, boiled down:
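FP displacement read-out: 100 nM GST-GRP1 PH domain plus 5 nM BODIPY-TMR-IP4 added after EDTA stop. Preceding kinase step: 5 ng enzyme, diC8-PI(4,5)P2 2.5 μM, ATP 25 μM, MgCl2 2.5 mM, HEPES 5 mM pH 7, one hour, 25° C.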

The target in the next assay is T1, human TOR (Homo sapiens, UniProt P42345).
T1 construct: FLAG
In words: mTOR enzyme assay (DELFIA, His6-S6K substrate). As to conditions: read-out: mTOR Kinase Avg. IC50.

The target in the next assay is PI3K-alpha (Homo sapiens, UniProt P42336). Briefly: PI3K-alpha fluorescence polarization assay.
PI3K-alpha, sequence (P42336 whole entry, species assumed): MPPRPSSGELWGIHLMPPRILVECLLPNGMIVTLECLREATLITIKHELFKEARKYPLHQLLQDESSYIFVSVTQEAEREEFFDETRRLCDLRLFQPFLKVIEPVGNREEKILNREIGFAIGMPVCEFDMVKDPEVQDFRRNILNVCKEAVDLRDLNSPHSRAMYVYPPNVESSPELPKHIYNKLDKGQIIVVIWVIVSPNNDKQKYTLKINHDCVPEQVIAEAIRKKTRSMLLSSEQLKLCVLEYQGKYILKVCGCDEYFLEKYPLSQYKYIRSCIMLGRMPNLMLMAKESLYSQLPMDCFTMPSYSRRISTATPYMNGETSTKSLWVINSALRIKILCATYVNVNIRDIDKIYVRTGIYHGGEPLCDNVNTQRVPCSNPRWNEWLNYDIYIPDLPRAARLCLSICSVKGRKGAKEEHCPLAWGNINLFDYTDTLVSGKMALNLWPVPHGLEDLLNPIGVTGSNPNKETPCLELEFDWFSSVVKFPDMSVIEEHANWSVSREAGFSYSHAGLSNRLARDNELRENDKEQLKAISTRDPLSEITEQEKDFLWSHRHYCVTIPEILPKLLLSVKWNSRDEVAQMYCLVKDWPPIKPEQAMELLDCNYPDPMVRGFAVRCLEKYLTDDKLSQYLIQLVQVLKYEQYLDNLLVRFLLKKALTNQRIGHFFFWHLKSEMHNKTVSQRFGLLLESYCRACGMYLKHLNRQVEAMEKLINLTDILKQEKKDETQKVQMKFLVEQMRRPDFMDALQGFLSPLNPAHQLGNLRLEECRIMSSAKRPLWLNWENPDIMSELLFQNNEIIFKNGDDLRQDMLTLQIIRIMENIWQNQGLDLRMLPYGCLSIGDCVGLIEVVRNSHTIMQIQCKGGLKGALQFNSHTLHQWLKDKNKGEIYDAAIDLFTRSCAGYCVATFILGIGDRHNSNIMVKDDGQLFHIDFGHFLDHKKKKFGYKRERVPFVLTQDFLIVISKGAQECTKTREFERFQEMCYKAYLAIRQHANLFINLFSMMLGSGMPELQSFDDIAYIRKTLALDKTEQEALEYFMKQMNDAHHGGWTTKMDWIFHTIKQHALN
PI3K-alpha, sequence (P27986 whole entry partner, species assumed): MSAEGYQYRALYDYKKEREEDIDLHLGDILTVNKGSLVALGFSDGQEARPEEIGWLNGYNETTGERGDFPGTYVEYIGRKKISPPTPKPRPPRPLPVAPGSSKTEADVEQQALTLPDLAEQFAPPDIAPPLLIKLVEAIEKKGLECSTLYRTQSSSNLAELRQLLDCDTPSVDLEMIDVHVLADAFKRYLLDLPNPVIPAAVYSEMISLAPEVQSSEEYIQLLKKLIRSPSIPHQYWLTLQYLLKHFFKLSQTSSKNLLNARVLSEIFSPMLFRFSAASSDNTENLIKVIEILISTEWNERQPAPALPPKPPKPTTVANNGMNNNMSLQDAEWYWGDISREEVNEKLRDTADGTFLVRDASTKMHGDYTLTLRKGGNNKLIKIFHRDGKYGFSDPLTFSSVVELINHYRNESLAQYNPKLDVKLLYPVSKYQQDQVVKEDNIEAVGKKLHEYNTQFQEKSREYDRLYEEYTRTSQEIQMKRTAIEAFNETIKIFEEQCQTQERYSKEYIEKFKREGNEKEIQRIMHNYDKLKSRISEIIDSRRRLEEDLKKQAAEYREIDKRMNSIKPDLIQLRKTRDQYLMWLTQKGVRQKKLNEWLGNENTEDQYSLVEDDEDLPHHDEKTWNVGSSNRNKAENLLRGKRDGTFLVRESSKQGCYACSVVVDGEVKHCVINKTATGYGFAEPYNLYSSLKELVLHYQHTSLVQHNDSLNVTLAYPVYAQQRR

PI3K-beta, sequence (P42338 whole entry, species assumed): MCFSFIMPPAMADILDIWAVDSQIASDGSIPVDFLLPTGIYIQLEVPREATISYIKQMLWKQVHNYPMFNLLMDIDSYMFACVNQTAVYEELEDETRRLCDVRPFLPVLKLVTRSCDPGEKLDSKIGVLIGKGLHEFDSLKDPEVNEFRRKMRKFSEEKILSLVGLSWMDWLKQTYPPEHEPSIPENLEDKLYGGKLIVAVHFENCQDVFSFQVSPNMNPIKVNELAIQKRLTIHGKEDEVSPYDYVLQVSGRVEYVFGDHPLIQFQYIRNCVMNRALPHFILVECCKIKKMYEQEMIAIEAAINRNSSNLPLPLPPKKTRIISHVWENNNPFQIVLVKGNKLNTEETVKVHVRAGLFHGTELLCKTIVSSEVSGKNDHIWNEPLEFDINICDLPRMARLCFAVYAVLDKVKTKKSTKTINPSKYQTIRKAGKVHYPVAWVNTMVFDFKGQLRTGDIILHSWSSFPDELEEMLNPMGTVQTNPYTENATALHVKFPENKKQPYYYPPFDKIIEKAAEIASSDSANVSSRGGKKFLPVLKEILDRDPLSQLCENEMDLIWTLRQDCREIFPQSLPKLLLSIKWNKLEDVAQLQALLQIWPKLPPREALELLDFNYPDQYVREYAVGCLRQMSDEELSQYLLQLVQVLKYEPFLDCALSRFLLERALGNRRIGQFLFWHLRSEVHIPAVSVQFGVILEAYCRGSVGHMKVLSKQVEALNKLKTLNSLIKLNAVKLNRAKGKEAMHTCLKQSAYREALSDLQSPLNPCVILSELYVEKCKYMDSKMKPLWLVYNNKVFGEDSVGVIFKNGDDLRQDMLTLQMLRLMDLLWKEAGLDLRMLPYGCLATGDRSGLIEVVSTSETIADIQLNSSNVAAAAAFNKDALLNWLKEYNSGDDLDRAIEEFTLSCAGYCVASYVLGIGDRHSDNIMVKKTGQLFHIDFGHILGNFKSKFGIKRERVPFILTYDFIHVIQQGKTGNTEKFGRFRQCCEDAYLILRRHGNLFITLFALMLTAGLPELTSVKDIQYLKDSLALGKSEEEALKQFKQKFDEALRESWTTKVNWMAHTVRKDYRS
PI3K-beta, sequence (P27986 whole entry partner, species assumed): as the sequence (P27986 whole entry partner, species assumed) above
PI3K-gamma, sequence (P48736 whole entry, species assumed, the tested form may be a part): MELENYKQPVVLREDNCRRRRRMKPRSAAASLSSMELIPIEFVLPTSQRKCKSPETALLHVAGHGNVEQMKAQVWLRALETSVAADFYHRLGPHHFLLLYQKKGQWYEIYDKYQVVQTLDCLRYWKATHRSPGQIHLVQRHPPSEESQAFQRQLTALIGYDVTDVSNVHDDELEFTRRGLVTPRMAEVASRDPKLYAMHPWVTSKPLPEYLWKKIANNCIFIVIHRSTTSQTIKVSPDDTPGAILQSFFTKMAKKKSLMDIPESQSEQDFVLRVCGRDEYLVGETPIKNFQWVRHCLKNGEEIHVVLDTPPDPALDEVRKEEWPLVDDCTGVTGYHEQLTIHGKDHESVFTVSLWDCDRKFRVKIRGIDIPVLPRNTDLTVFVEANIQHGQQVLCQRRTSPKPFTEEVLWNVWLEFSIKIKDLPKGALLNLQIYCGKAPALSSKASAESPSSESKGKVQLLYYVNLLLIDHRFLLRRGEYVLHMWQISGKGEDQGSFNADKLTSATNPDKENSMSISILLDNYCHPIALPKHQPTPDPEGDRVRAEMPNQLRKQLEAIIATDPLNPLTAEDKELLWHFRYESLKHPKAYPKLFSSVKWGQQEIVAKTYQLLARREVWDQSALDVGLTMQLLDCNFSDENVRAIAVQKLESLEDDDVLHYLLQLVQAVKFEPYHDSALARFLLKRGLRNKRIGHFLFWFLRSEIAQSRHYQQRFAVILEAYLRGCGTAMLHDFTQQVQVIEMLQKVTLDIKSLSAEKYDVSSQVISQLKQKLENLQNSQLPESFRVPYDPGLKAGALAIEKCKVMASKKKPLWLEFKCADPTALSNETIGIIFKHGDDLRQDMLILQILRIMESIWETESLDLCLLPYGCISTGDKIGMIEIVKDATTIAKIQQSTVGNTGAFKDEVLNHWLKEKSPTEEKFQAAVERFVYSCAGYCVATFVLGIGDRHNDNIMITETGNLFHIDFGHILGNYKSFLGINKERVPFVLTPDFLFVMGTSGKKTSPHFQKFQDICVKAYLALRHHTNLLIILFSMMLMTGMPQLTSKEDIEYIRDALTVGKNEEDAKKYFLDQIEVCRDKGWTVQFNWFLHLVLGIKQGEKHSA
PI3K-delta, sequence (O00329 whole entry, species assumed): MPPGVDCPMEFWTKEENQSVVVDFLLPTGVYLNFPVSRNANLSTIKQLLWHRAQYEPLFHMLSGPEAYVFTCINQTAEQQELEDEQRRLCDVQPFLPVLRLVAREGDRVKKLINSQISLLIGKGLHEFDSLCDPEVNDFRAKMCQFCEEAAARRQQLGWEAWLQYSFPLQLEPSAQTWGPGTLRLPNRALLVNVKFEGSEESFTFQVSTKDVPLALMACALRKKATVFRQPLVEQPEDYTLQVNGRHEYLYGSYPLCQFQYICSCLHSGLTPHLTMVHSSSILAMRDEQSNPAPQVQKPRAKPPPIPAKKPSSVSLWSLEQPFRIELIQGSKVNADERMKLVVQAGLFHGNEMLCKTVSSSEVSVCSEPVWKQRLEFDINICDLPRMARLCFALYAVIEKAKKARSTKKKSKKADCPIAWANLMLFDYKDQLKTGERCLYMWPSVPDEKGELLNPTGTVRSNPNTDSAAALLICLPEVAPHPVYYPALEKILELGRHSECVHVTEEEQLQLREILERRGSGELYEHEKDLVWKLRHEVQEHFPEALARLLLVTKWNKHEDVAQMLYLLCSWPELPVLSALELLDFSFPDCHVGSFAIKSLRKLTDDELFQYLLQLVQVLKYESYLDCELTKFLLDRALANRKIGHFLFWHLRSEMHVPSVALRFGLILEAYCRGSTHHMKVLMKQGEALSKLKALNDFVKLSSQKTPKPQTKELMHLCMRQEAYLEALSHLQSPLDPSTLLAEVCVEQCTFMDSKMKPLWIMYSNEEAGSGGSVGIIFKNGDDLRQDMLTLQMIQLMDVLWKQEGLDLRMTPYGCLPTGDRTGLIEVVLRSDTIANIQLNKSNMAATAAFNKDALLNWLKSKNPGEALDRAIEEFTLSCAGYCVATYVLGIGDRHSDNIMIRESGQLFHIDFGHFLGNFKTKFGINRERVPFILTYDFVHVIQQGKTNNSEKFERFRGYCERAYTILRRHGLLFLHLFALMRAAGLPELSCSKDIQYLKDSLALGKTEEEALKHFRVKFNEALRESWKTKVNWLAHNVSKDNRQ
PI3K-delta, sequence (P27986 whole entry partner, species assumed): as the sequence (P27986 whole entry partner, species assumed) above

On to `O=C1/C(=C/c2c(-c3ccc(Cl)cc3)[nH]c3ccccc23)Oc2c1ccc(O)c2O` [Example 54, (2Z)-2-{[2-(4-chlorophenyl)-1H-indol-3-yl]methylene}-6,7-dihydroxy-1-benzofuran-3(2H)-one], for which the IC50 on PI3K-beta was 0.098 µM; on PI3K-delta (read-out: PI3Kδ Avg. IC50) it was 0.0335 µM; at PI3K-gamma, 1.06 µM; on human TOR it was 9.6 µM; at PI3K-alpha (read-out: PI3Kα Avg. IC50), 0.111 µM.

As for `O=C1/C(=C/c2c(-c3ccc4ccccc4c3)[nH]c3ccccc23)Oc2c1ccc(O)c2O` [Example 55, (2Z)-6,7-dihydroxy-2-{[2-(2-naphthyl)-1H-indol-3-yl]methylene}-1-benzofuran-3(2H)-one], the half-inhibitory concentration (IC50) on PI3K-beta amounted to 0.072 µM; on PI3K-delta (read-out: PI3Kδ Avg. IC50), 0.032 µM; at PI3K-gamma, 0.716 µM; on human TOR it was 10 µM; on PI3K-alpha (read-out: PI3Kα Avg. IC50), 0.0727 µM.

Regarding `O=C1/C(=C/c2c(-c3ccc(F)cc3)[nH]c3ccccc23)Oc2c1ccc(O)c2O` [Example 56, (2Z)-2-{[2-(4-fluorophenyl)-1H-indol-3-yl]methylene}-6,7-dihydroxy-1-benzofuran-3(2H)-one], the IC50 is 0.251 µM at PI3K-beta; 0.107 µM at PI3K-delta (read-out: PI3Kδ Avg. IC50); 1.95 µM against PI3K-gamma; more than 20 µM at human TOR; 0.19 µM at PI3K-alpha (read-out: PI3Kα Avg. IC50).

`COc1ccc2[nH]cc(/C=C3\Oc4cc(O)cc(O)c4C3=O)c2c1` [Example 59, (2Z)-4,6-dihydroxy-2-[(5-methoxy-1H-indol-3-yl)methylene]-1-benzofuran-3(2H)-one]: the IC50 amounted to 0.173 µM at PI3K-beta; 0.07 µM at PI3K-delta (read-out: PI3Kδ Avg. IC50); 0.269 µM at PI3K-gamma; 0.265 µM on human TOR; 0.0302 µM against PI3K-alpha (PI3Kα Avg. IC50).

For the compound `Cc1[nH]c2ccc(Br)cc2c1/C=C1\Oc2cc(O)cc(O)c2C1=O` [Example 61, (2Z)-2-[(5-bromo-2-methyl-1H-indol-3-yl)methylene]-4,6-dihydroxy-1-benzofuran-3(2H)-one], the IC50 on PI3K-beta was determined as 0.567 µM; at PI3K-delta (read-out: PI3Kδ Avg. IC50), 0.374 µM; against PI3K-gamma, 2.22 µM; on human TOR it was 0.19 µM; against PI3K-alpha (PI3Kα Avg. IC50) it was 0.179 µM.

As for `COc1ccc2[nH]c(C)c(C=C3Oc4cc(O)cc(O)c4C3=O)c2c1` [Example 73, 4,6-dihydroxy-2-[(5-methoxy-2-methyl-1H-indol-3-yl)methylene]-1-benzofuran-3(2H)-one], the IC50 at PI3K-beta stood at 0.008 µM; at PI3K-delta (read-out: PI3Kδ Avg. IC50), 0.0058 µM; at PI3K-gamma, 0.025 µM; at human TOR it was 0.0027 µM; at PI3K-alpha (read-out: PI3Kα Avg. IC50), 0.0027 µM.

Regarding `COc1ccc2c(c1)c(C=C1Oc3cc(O)cc(O)c3C1=O)cn2C` [Example 84, 4,6-dihydroxy-2-[(5-methoxy-1-methyl-1H-indol-3-yl)methylene]-1-benzofuran-3(2H)-one], the half-inhibitory concentration (IC50) at PI3K-beta was found to be 0.547 µM; at PI3K-delta it was 0.11 µM; against PI3K-gamma, 0.586 µM; on human TOR, 0.0653 µM; on PI3K-alpha (PI3Kα Avg. IC50), 0.106 µM.

For the compound `COc1ccc2[nH]c(C)c(C=C3Oc4cccc(O)c4C3=O)c2c1` [Example 86, 4-hydroxy-2-[(5-methoxy-2-methyl-1H-indol-3-yl)methylene]-1-benzofuran-3(2H)-one], the IC50 on PI3K-beta turned out to be 0.098 µM; on PI3K-delta (read-out: PI3Kδ Avg. IC50) it was 0.047 µM; against PI3K-gamma it was 0.355 µM; on human TOR, 0.0848 µM; on PI3K-alpha (read-out: PI3Kα Avg. IC50) it was 0.184 µM.

Turning to `COc1ccc2c(c1)c(C=C1Oc3cc(O)cc(O)c3C1=O)c(C)n2CCCCl` [Example 88, 2-{[1-(3-chloropropyl)-5-methoxy-2-methyl-1H-indol-3-yl]methylene}-4,6-dihydroxy-1-benzofuran-3(2H)-one], the concentration for half-maximal inhibition (IC50) is 0.052 µM on PI3K-beta; 0.0035 µM on PI3K-delta (read-out: PI3Kδ Avg. IC50); 0.0737 µM against PI3K-gamma; less than 0.021 µM at human TOR; 0.0097 µM on PI3K-alpha (read-out: PI3Kα Avg. IC50).
